Data reported in US10828317B2, “Method of treating bacterial infections” (priority 2016, dated 2020).
Where two headings read alike, the source gives them in different places.

Experiments:
K. pneumoniae EN0262 = details: commercial antibiotics; data provided by IMBIM, BMC, Uppsala University; cited from earlier work
S. flexneri APV00907 = assay: MIC and antibiogram; assay type: cell-based
From the text: (§1) Inhibition of Heliobacter is important in view of increasing resistance and its association to gastric cancer.

S. sonnei APV00908 = assay: MIC and antibiogram; assay type: cell-based
S. flexneri APV00906 = assay: microbe, parasite or virus in culture; assay type: cell-based
From the text: as §1

S. aureus strain no 13 = assay: MIC vs S. aureus LMG 15975, MRSA; details: Staphylococcus aureus

Compound	MIC (K. pneumoniae EN0262) [µg/mL]	Antibiogram MIC (S. flexneri APV00907) [µg/mL]	Antibiogram MIC (S. sonnei APV00908) [µg/mL]	Antibiogram MIC (S. flexneri APV00906) [µg/mL]	further results
CO/N=C(\C(=O)N[C@@H]1C(=O)N2C(C(=O)O)=C(COC(C)=O)CS[C@H]12)c1csc(N)n1 [CTX, cefotaxime]	>32	–	–	–	–
piperacillin-tazobactam [TZP]	64	≤ 4	≤ 4	≤ 4	–
C[C@@H](O)[C@H]1C(=O)N2C(C(=O)O)=C(S[C@@H]3CN[C@H](C(=O)N(C)C)C3)[C@H](C)[C@H]12 [MEM, meropenem]	>8	–	–	–	–
trimethoprim-sulfamethoxazole [SXT]	4	≥ 320	≥ 160	≥ 320	–
C[C@H]1[C@H](NC(=O)/C(=N\OC(C)(C)C(=O)O)c2csc(N)n2)C(=O)N1S(=O)(=O)O [ATM, aztreonam]	>16	–	–	–	–
COc1cc(Cc2cnc(N)nc2N)c2c(c1OC)OC(C1CC1)C=C2 (stereo not shown) [Iclaprim, iclaprim]	–	–	–	–	MIC (S. aureus strain no 13; NO13, read-out: MIC Iclaprim, Uridine 0 μg/ml): > 16 µg/mL; MIC (S. aureus strain no 13; NO13, read-out: MIC Iclaprim, Uridine 100 μg/ml): > 16 µg/mL
colistin [CST]	1	–	–	–	–
amoxicillin-clavulanic acid [AMC]	>64	16	≤ 2	4	Antibiogram category (resistance pattern) (S. flexneri APV00907; letter before the MIC): |
